Values joined by “and” are separate entries in the source; they are usually repeats but may differ in a detail not shown here. Equal values may be shown once. “Also recorded” adds a separate entry of the source.
Assays:
[1] = Static thermostability of stabilized resin, GARDNER Scale Comparator, Compound B; conditions: 210° C
Description: (§1) The stabilizing power of the substances of the invention was studied from two points of view:
(§2) These studies were performed with six different formulae of vinyl resins (hereinafter referred to as Compounds).
(§3) The different compounds were mixed and calendered in a mixer of which the cylinders were heated to 160° C. The rigid sheets so obtained were then heated in an oven to a temperature between 180° C and 215° C, until incipient carbonization.
(§4) A stove with rotating drums, ventilated and equipped with a thermostat was used for this operation. In the trials described hereunder, the behaviour of a sheet containing the stabilizer to be tested was compared to that of a sheet of the same formula but containing 2-phenyl-indole as stabilizer.
(§5) 1. The colouration of the sheets, of which samples were removed from the stove at fixed intervals was compared to a standard scale of colouration, known as the GARDNER Scale, and expressed in terms of the reference figures of the GARDNER Scale.
(§6) Comparisons were made with a GARDNER Scale Comparator which contains 18 filters of coloured glass and which offers the possibility of observing by transparency and in a limited field of view both the sheet and the reference filters.
Compound B was used and the sheets obtained presented the following characteristics: […]

[2] = Thermostability of the stabilizers: thermogravimetric analysis; format: physicochemical; conditions: 80° C/hour, under air
Description: The thermostability of Stabilizer 8 and that of 2-phenyl-indole were studied by differential thermoanalysis and by thermogravimetric analysis.
This analysis necessitated two series of trials carried out under air and under inert gas (Argon) in order to eliminate any possible effect of oxygen. The results obtained were identical.
The temperature increase rate was 80° C/hour. Thermograms were drawn up under air for both 2-phenyl-indole (i) and for Stabilizer 8 (ii) and enabled the following conclusion to be drawn: […]

[3] = Static thermostability of stabilized resin, GARDNER Scale Comparator, Compound A; conditions: 185° C
Description: as §1, §2, §3, §4, §5, §6

[4] = Static thermostability of stabilized resin, simplified method (GARDNER sub-scale), Compound C; conditions: 210° C
Description: as §1, §2, §3, §4
(§7) 2. It is also possible to use a simplified method which is more rapid and with which valid results are also obtained: a reference scale is drawn up with sheets of thermally treated polyvinyl chloride, of which the colourations have been definitely determined in GARDNER degrees as above. A GARDNER sub-scale is thus obtained in polyvinyl chloride sheets which can be directly compared to the sheets to be tested without using the comparator.

[5] = Sublimation of the stabilizers; format: physicochemical; conditions: 120° C, cold wall 13° C, 15 Torr, 150 min
Excerpt: A sample of the substance to be tested was introduced into a test tube and heated under reduced pressure. The fraction of sublimated substance was recovered on a mobile cold wall.
After a certain period of time, the sublimated substance was weighed and the result expressed as a percentage of the weight of the starting-material.
The results obtained can only be of relative value, enabling a comparison to be made between two products tested under the same conditions.
Operating conditions (chosen at random).
Temperature of heating 120° C
Temperature of the cold wall
Duration of heating 150 minutes

[6] = format: physicochemical
Excerpt: The thermostability of Stabilizer 8 and that of 2-phenyl-indole were studied by differential thermoanalysis and by thermogravimetric analysis. […] Diagrams were made out for 2-phenyl-indole (i) and Compound 8 (ii) and enabled the following conclusions to be drawn: […]

[7] = Static thermostability of stabilized resin, simplified method (GARDNER sub-scale), Compound E; conditions: 185° C
Description: as §1, §2, §3, §4, §7

[8] = Static thermostability of stabilized resin, simplified method (GARDNER sub-scale), Compound D; conditions: 185° C
Description: as §1, §2, §3, §4, §7

[9] = Acute toxicity by oral route in mice (LD50); format: in vivo; conditions: mouse, in vivo, gummy suspension
Description: (§8) The study of the acute toxicity of the stabilizers listed below was carried out by determining the dose of substance which provoked the death of 50% of the treated animals (LD50). A gummy suspension of the substance under study was administered by oral route to groups of at least ten mice and the following results were observed: […]

mice = assay: Acute toxicity by oral route in mice (LD50); format: in vivo; conditions: LD50 study
Description: as §8

[10] = Static thermostability of stabilized resin, simplified method (GARDNER sub-scale), Compound A; conditions: 210° C
Description: as §1, §2, §3, §4, §7
Finally, trials were carried out with Stabilizers 15, 16 and 17 and with 2-phenyl-indole. Compound A was used and the temperature was 210° C.

[11] = Sticking of the stabilized material; conditions: cylinders at 210° C, 3 min mixing / 3 min rest
Description: Compounds Nos. 609 and 675 were placed in a mixer of the type previously used for studying static thermostability with cylinders at a fixed temperature of 210° C.
They were submitted to alternate periods of 3 minutes of mixing and 3 minutes of rest.

With `c1ccc(-c2cc3ccccc3[nH]2)cc1` [2-phenyl-indole] the “Colouration of sheet (GARDNER Scale)” value ([1]; 0 min) was 1 GARDNER degrees, the “Colouration of sheet (GARDNER Scale)” value ([1]; 3 min) was 1 GARDNER degrees and the “Colouration of sheet (GARDNER Scale)” value ([1]; 6 min) was 2 GARDNER degrees. For the same molecule, the “Colouration of sheet (GARDNER Scale)” value ([1]; 9 min) was 3 GARDNER degrees, the “Colouration of sheet (GARDNER Scale)” value ([1]; 12 min) was 4 GARDNER degrees and the “Colouration of sheet (GARDNER Scale)” value ([1]; 15 min) was 6 GARDNER degrees. The “Colouration of sheet (GARDNER Scale)” value ([1]; 18 min) was 8 GARDNER degrees, the “Colouration of sheet (GARDNER Scale)” value ([1]; 21 min) was greater than 18 GARDNER degrees and the Thickness of sheet ([1]; after 21 min) was 0.9 mm. For the same molecule, the State of sheet ([1]; after 24 min) was “burnt”, the “Decomposition residue at 210° C” value [2] was “a yellowish residue was, in fact, obtained at 210 °C which constitutes proof of decomposition” and the “Colouration of sheet (GARDNER Scale)” value ([3]; 0 min) was 1 GARDNER degrees. The “Colouration of sheet (GARDNER Scale)” value ([3]; 6 min) was 1 GARDNER degrees, the “Colouration of sheet (GARDNER Scale)” value ([3]; 12 min) was 3 GARDNER degrees and the “Colouration of sheet (GARDNER Scale)” value ([3]; 18 min) was 5 GARDNER degrees. For the same molecule, the “Colouration of sheet (GARDNER Scale)” value ([3]; 24 min) was 11 GARDNER degrees, the “Colouration of sheet (GARDNER Scale)” value ([3]; 30 min) was 12 GARDNER degrees and the “Colouration of sheet (GARDNER Scale)” value ([3]; 36 min) was 14 GARDNER degrees. The “Colouration of sheet (GARDNER Scale)” value ([3]; 42 min) was 14 GARDNER degrees, the “Colouration of sheet (GARDNER Scale)” value ([3]; 48 min) was 14 GARDNER degrees and the “Colouration of sheet (GARDNER Scale)” value ([3]; 54 min) was “burnt”. For the same molecule, the “Colouration of sheet (GARDNER sub-scale)” value ([4]; 0 min) was 1 GARDNER degrees, the “Colouration of sheet (GARDNER sub-scale)” value ([4]; 10 min) was 1.5 GARDNER degrees and the “Colouration of sheet (GARDNER sub-scale)” value ([4]; 20 min) was 2 GARDNER degrees. The “Colouration of sheet (GARDNER sub-scale)” value ([4]; 30 min) was less than 3 GARDNER degrees, the “Colouration of sheet (GARDNER sub-scale)” value ([4]; 40 min) was 3 GARDNER degrees and the “Colouration of sheet (GARDNER sub-scale)” value ([4]; 50 min) was greater than 3 GARDNER degrees. The “Colouration of sheet (GARDNER sub-scale)” value ([4]; 55 min) was 3.5 GARDNER degrees, the “Colouration of sheet (GARDNER sub-scale)” value ([4]; 60 min) was greater than 4 GARDNER degrees and the “Percentage of sublimated substance” value [5] was 26.9%. The “Temperature from which it particularly sublimates (melting point)” value [6] was 185-190 °C, the “Loss of water at 100° C” value ([6]; 2° C/minute) was “no loss of water at 100 °C” and the Sublimation temperature ([6]; 2° C/minute) was 140 °C. The “Colouration of sheet (GARDNER sub-scale)” value ([7]; 0 min) was less than 1 GARDNER degrees, the “Colouration of sheet (GARDNER sub-scale)” value ([7]; 10 min) was 1 GARDNER degrees and the “Colouration of sheet (GARDNER sub-scale)” value ([7]; 20 min) was 2 GARDNER degrees. For the same molecule, the “Colouration of sheet (GARDNER sub-scale)” value ([7]; 30 min) was 3 GARDNER degrees, the “Colouration of sheet (GARDNER sub-scale)” value ([8]; 0 min) was 1 GARDNER degrees and the “Colouration of sheet (GARDNER sub-scale)” value ([8]; 10 min) was 2 GARDNER degrees. For the same molecule, the “Colouration of sheet (GARDNER sub-scale)” value ([8]; 20 min) was greater than 2 GARDNER degrees, the “Colouration of sheet (GARDNER sub-scale)” value ([8]; 30 min) was 3 GARDNER degrees and the LD50 [9] was greater than 3000 mg/kg. The Toxic symptoms (mice) was “none”, the “Colouration of sheet (GARDNER sub-scale)” value ([10]; 0 min) was 1 GARDNER degrees and the “Colouration of sheet (GARDNER sub-scale)” value ([10]; 3 min) was 2 GARDNER degrees and 1 GARDNER degrees. The “Colouration of sheet (GARDNER sub-scale)” value ([10]; 3 min, listed as 2-phenyl-inodle) was 2 GARDNER degrees, the “Colouration of sheet (GARDNER sub-scale)” value ([10]; 6 min) was 2.5 GARDNER degrees and 2 GARDNER degrees and 3 GARDNER degrees and the “Colouration of sheet (GARDNER sub-scale)” value ([10]; 6 min, listed as 2-phenyl-inodle) was 3 GARDNER degrees. The “Colouration of sheet (GARDNER sub-scale)” value ([10]; 9 min, listed as 2-phenyl-inodle) was 8 GARDNER degrees, the “Colouration of sheet (GARDNER sub-scale)” value ([10]; 12 min) was 11 GARDNER degrees and 10 GARDNER degrees and 9 GARDNER degrees and the “Colouration of sheet (GARDNER sub-scale)” value ([10]; 12 min, listed as 2-phenyl-inodle) was 11 GARDNER degrees. For the same molecule, the “Colouration of sheet (GARDNER sub-scale)” value ([10]; 15 min) was 13 GARDNER degrees and 12 GARDNER degrees and 14 GARDNER degrees, the “Colouration of sheet (GARDNER sub-scale)” value ([10]; 15 min, listed as 2-phenyl-inodle) was 12 GARDNER degrees and the “Colouration of sheet (GARDNER sub-scale)” value ([10]; 18 min) was “burnt”. The Burning of sheet ([10]; at 15 min) was “burnt along its edges; also recorded: badly burnt” and the “Sticking of the stabilized material” value [11] was “comparable”.

With `CCCCC(CC)COc1ccc(-c2cc3ccccc3[nH]2)cc1` (centres unmarked) [Stabilizer 7, 2-(2"-ethyl-4'-hexyloxy-phenyl)-indole] the “Colouration of sheet (GARDNER sub-scale)” value ([7]; 0 min) was less than 1 GARDNER degrees, the “Colouration of sheet (GARDNER sub-scale)” value ([7]; 10 min) was less than 1 GARDNER degrees and the “Colouration of sheet (GARDNER sub-scale)” value ([7]; 20 min) was less than 2 GARDNER degrees. The “Colouration of sheet (GARDNER sub-scale)” value ([7]; 30 min) was less than 3 GARDNER degrees, the “Colouration given to the co-polymer” value [8] was “less yellow with Stabilizer 7 than with 2-phenyl-indole” and the “Static thermostability compared with 2-phenyl-indole” value [8] was “markedly superior to 2-phenyl-indole”. The “Colouration of sheet (GARDNER sub-scale)” value ([8]; 0 min) was less than 1 GARDNER degrees, the “Colouration of sheet (GARDNER sub-scale)” value ([8]; 10 min) was less than 2 GARDNER degrees and the “Colouration of sheet (GARDNER sub-scale)” value ([8]; 20 min) was 2 GARDNER degrees. The “Colouration of sheet (GARDNER sub-scale)” value ([8]; 30 min) was less than 3 GARDNER degrees, the LD50 [9] was greater than 2000 mg/kg and the Toxic symptoms (mice) was “none”.

— patent publication US4057530A, “2-Phenyl-indole derivatives and process for preparing the same” (priority 1974, dated 1977)
